Reference: patent US20240109917A1 (ACTELION PHARMACEUTICALS LTD, priority 2020, published 2024)

Molecular target: His6-TEV-PDGFRβ (557-1016) (Homo sapiens (Human), UniProt P09619)
Assay: PDGFRβ HTRF Assay
Type: biochemical
Conditions: read-out: PDGFR HTRF IC50
Procedure, shortened: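 Human PDGFRβ (557-1016) pre-incubated with compound for 30 min at RT in pH 7.5 HEPES/MgCl2/EGTA/Brij-35/DTT buffer. Reaction started with ATP and TK-biotin peptide, run 3 h at RT, then quenched with EDTA-containing Eu-cryptate antibody/streptavidin-XL665. HTRF 665/620 nm ratio read after 60 min; percent inhibition relative to DMSO and 10 μM imatinib controls.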

His6-TEV-PDGFRβ (557-1016), sequence (P09619 557-1016): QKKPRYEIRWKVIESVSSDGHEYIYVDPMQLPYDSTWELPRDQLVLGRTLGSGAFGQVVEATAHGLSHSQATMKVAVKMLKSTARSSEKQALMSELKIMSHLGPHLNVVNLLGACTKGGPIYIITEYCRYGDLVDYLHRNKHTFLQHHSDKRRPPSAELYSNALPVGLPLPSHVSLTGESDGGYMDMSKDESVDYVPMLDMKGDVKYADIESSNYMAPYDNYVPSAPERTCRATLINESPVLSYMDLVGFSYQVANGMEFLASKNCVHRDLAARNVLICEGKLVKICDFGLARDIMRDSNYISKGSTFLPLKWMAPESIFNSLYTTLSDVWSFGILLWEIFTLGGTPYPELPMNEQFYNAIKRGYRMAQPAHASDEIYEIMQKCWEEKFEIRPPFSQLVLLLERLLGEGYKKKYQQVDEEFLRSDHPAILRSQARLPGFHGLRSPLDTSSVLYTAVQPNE

Compound	IC50 [nM]
COc1ccncc1-c1cn2ncc(C(=O)Nc3cc(NC(=O)CN4C[C@H](C)O[C@@H](C)C4)cnc3C)c2s1 (relative stereo) [Example 385, N-(5-(2-(trans-2,6-dimethylmorpholino)acetamido)-2-methylpyridin-3-yl)-2-(4-methoxypyridin-3-yl)pyrazolo[5,1-b]thiazole-7-carboxamide]	0.8
COc1cccc(-c2cn3ncc(C(=O)Nc4cc(NC(=O)CN5C[C@H](C)O[C@@H](C)C5)cnc4C)c3s2)n1 (relative stereo) [Example 386, N-(5-(2-(trans-2,6-dimethylmorpholino)acetamido)-2-methylpyridin-3-yl)-2-(6-methoxypyridin-2-yl)pyrazolo[5,1-b]thiazole-7-carboxamide]	0.4
Cc1ncc(NC(=O)CN2CCC[C@H]2C)cc1NC(=O)c1cnn2cc(-c3cnn(C)c3)sc12 [Example 26, (R)-2-(1-methyl-1H-pyrazol-4-yl)-N-(2-methyl-5-(2-(2-methyl-pyrrolidin-1-yl)acetamido)pyridin-3-yl)pyrazolo[5,1-b]thiazole-7-carboxamide]	0.8
Cc1ncc(NC(=O)CN2CCC[C@@H]2C)cc1NC(=O)c1cnn2cc(-c3cnn(C)c3)sc12 [Example 27, (S)-2-(1-methyl-1H-pyrazol-4-yl)-N-(2-methyl-5-(2-(2-methyl-pyrrolidin-1-yl)acetamido)pyridin-3-yl)pyrazolo[5,1-b]thiazole-7-carboxamide]	0.9
Cc1ncc(NC(=O)CN2CCC(C)(C)C2)cc1NC(=O)c1cnn2cc(-c3cnn(CCO)c3)sc12 [Example 28, N-(5-(2-(3,3-dimethylpyrrolidin-1-yl)acetamido)-2-methylpyridin-3-yl)-2-(1-(2-hydroxyethyl)-1H-pyrazol-4-yl)pyrazolo[5,1-b]thiazole-7-carboxamide]	0.6
Cc1ncc(NC(=O)CN2CCCC23CCC3)cc1NC(=O)c1cnn2cc(-c3cnn(CCO)c3)sc12 [Example 29, N-(5-(2-(5-azaspiro[3.4]octan-5-yl)acetamido)-2-methylpyridin-3-yl)-2-(1-(2-hydroxyethyl)-1H-pyrazol-4-yl)pyrazolo[5,1-b]thiazole-7-carboxamide]	0.4
Cc1ncc(NC(=O)CN2CCC3(CCC3)C2)cc1NC(=O)c1cnn2cc(-c3cnn(CCO)c3)sc12 [Example 30, N-(5-(2-(6-azaspiro[3.4]octan-6-yl)acetamido)-2-methylpyridin-3-yl)-2-(1-(2-hydroxyethyl)-1H-pyrazol-4-yl)pyrazolo[5,1-b]thiazole-7-carboxamide]	0.5
Cc1ncc(NC(=O)CN2CCC3(CC2)CC3)cc1NC(=O)c1cnn2cc(-c3cnn(CCO)c3)sc12 [Example 31, N-(5-(2-(6-azaspiro[2.5]octan-6-yl)acetamido)-2-methylpyridin-3-yl)-2-(1-(2-hydroxyethyl)-1H-pyrazol-4-yl)pyrazolo[5,1-b]thiazole-7-carboxamide]	0.6
Cc1ncc(NC(=O)CN2CCC3(CC3)C2)cc1NC(=O)c1cnn2cc(-c3cnn(CCO)c3)sc12 [Example 32, N-(5-(2-(5-azaspiro[2.4]heptan-5-yl)acetamido)-2-methylpyridin-3-yl)-2-(1-(2-hydroxyethyl)-1H-pyrazol-4-yl)pyrazolo[5,1-b]thiazole-7-carboxamide]	0.7
Cc1ncc(NC(=O)CN2CCCC[C@H]2C)cc1NC(=O)c1cnn2cc(-c3cnn(CCO)c3)sc12 [Example 33, (R)-2-(1-(2-hydroxyethyl)-1H-pyrazol-4-yl)-N-(2-methyl-5-(2-(2-methyl-piperidin-1-yl)acetamido)pyridin-3-yl)pyrazolo[5,1-b]thiazole-7-carboxamide]	0.7
COCCn1cc(-c2cn3ncc(C(=O)Nc4cc(NC(=O)CN5CC6CCC5CC6)cnc4C)c3s2)cn1 [Example 331, N-(5-(2-(2-azabicyclo[2.2.2]octan-2-yl)acetamido)-2-methylpyridin-3-yl)-2-(1-(2-methoxyethyl)-1H-pyrazol-4-yl)pyrazolo[5,1-b]thiazole-7-carboxamide]	0.4
COCCn1cc(-c2cn3ncc(C(=O)Nc4cc(NC(=O)CN5CCCC56CCC6)cnc4C)c3s2)cn1 [Example 332, N-(5-(2-(5-azaspiro[3.4]octan-5-yl)acetamido)-2-methylpyridin-3-yl)-2-(1-(2-methoxyethyl)-1H-pyrazol-4-yl)pyrazolo[5,1-b]thiazole-7-carboxamide]	0.6
COCCn1cc(-c2cn3ncc(C(=O)Nc4cc(NC(=O)CN5CCC56CCC6)cnc4C)c3s2)cn1 [Example 333, N-(5-(2-(1-azaspiro[3.3]heptan-1-yl)acetamido)-2-methylpyridin-3-yl)-2-(1-(2-methoxyethyl)-1H-pyrazol-4-yl)pyrazolo[5,1-b]thiazole-7-carboxamide]	0.4
COCCn1cc(-c2cn3ncc(C(=O)Nc4cc(NC(=O)CN5C[C@H]6CC[C@@H]5C6)cnc4C)c3s2)cn1 [Example 334, N-(5-(2-((1R,4S)-2-azabicyclo[2.2.1]heptan-2-yl)acetamido)-2-methylpyridin-3-yl)-2-(1-(2-methoxyethyl)-1H-pyrazol-4-yl)pyrazolo[5,1-b]thiazole-7-carboxamide]	0.5
COCCn1cc(-c2cn3ncc(C(=O)Nc4cc(NC(=O)CN5CCCC6(CC6)C5)cnc4C)c3s2)cn1 [Example 335, N-(5-(2-(5-azaspiro[2.5]octan-5-yl)acetamido)-2-methylpyridin-3-yl)-2-(1-(2-methoxyethyl)-1H-pyrazol-4-yl)pyrazolo[5,1-b]thiazole-7-carboxamide]	0.4
COCCn1cc(-c2cn3ncc(C(=O)Nc4cc(NC(=O)CN5CCC(C)(C)C5)cnc4C)c3s2)cn1 [Example 336, N-(5-(2-(3,3-dimethylpyrrolidin-1-yl)acetamido)-2-methylpyridin-3-yl)-2-(1-(2-methoxyethyl)-1H-pyrazol-4-yl)pyrazolo[5,1-b]thiazole-7-carboxamide]	0.4
COCCn1cc(-c2cn3ncc(C(=O)Nc4cc(NC(=O)CN5CCCC5)cnc4C)c3s2)cn1 [Example 337, 2-(1-(2-methoxyethyl)-1H-pyrazol-4-yl)-N-(2-methyl-5-(2-(pyrrolidin-1-yl)acetamido)pyridin-3-yl)pyrazolo[5,1-b]thiazole-7-carboxamide]	1.8
COCCn1cc(-c2cn3ncc(C(=O)Nc4cc(NC(=O)CN5CCCCC5)cnc4C)c3s2)cn1 [Example 338, 2-(1-(2-methoxyethyl)-1H-pyrazol-4-yl)-N-(2-methyl-5-(2-(piperidin-1-yl)acetamido)pyridin-3-yl)pyrazolo[5,1-b]thiazole-7-carboxamide]	0.4
COCCn1cc(-c2cn3ncc(C(=O)Nc4cc(NC(=O)CN5CCCCCC5)cnc4C)c3s2)cn1 [Example 339, N-(5-(2-(azepan-1-yl)acetamido)-2-methylpyridin-3-yl)-2-(1-(2-methoxyethyl)-1H-pyrazol-4-yl)pyrazolo[5,1-b]thiazole-7-carboxamide]	0.4
COCCn1cc(-c2cn3ncc(C(=O)Nc4cc(NC(=O)CN5C6CCC5CC6)cnc4C)c3s2)cn1 [Example 340, N-(5-(2-(7-azabicyclo[2.2.1]heptan-7-yl)acetamido)-2-methylpyridin-3-yl)-2-(1-(2-methoxyethyl)-1H-pyrazol-4-yl)pyrazolo[5,1-b]thiazole-7-carboxamide]	0.5
COCCn1cc(-c2cn3ncc(C(=O)Nc4cc(NC(=O)CN5CCC(C6CC6)C5)cnc4C)c3s2)cn1 (stereo not drawn) [Example 341, N-(5-(2-(3-cyclopropylpyrrolidin-1-yl)acetamido)-2-methylpyridin-3-yl)-2-(1-(2-methoxyethyl)-1H-pyrazol-4-yl)pyrazolo[5,1-b]thiazole-7-carboxamide]	0.4
COCCn1cc(-c2cn3ncc(C(=O)Nc4cc(NC(=O)C5CN(C(C)C)C5)cnc4C)c3s2)cn1 [Example 342, N-(5-(1-isopropylazetidine-3-carboxamido)-2-methylpyridin-3-yl)-2-(1-(2-methoxyethyl)-1H-pyrazol-4-yl)pyrazolo[5,1-b]thiazole-7-carboxamide]	0.6
COCCn1cc(-c2cn3ncc(C(=O)Nc4cc(NC(=O)[C@@H]5CCCN5C(C)C)cnc4C)c3s2)cn1 [Example 343, (S)—N-(5-(1-isopropylpyrrolidine-2-carboxamido)-2-methylpyridin-3-yl)-2-(1-(2-methoxyethyl)-1H-pyrazol-4-yl)pyrazolo[5,1-b]thiazole-7-carboxamide]	3.5
COCCn1cc(-c2cn3ncc(C(=O)Nc4cc(NC(=O)[C@H]5CCCN5C(C)C)cnc4C)c3s2)cn1 [Example 344, (R)—N-(5-(1-isopropylpyrrolidine-2-carboxamido)-2-methylpyridin-3-yl)-2-(1-(2-methoxyethyl)-1H-pyrazol-4-yl)pyrazolo[5,1-b]thiazole-7-carboxamide]	4.3
COCCn1cc(-c2cn3ncc(C(=O)Nc4cc(NC(=O)C5CCN(C(C)C)C5)cnc4C)c3s2)cn1 (stereo not drawn) [Example 345, N-(5-(1-isopropylpyrrolidine-3-carboxamido)-2-methylpyridin-3-yl)-2-(1-(2-methoxyethyl)-1H-pyrazol-4-yl)pyrazolo[5,1-b]thiazole-7-carboxamide]	1.3
Cc1ncc(NC(=O)[C@@H]2CCCN2C(C)C)cc1NC(=O)c1cnn2cc(-c3cnn4c3OCCC4)sc12 [Example 346, (S)-2-(6,7-dihydro-5H-pyrazolo[5,1-b][1,3]oxazin-3-yl)-N-(5-(1-isopropylpyrrolidine-2-carboxamido)-2-methylpyridin-3-yl)pyrazolo[5,1-b]thiazole-7-carboxamide]	0.5
Cc1ncc(NC(=O)[C@H]2CCCN2C(C)C)cc1NC(=O)c1cnn2cc(-c3cnn4c3OCCC4)sc12 [Example 347, (R)-2-(6,7-dihydro-5H-pyrazolo[5,1-b][1,3]oxazin-3-yl)-N-(5-(1-isopropylpyrrolidine-2-carboxamido)-2-methylpyridin-3-yl)pyrazolo[5,1-b]thiazole-7-carboxamide]	0.5
